Assay results from ChEMBL document CHEMBL5120923, “Tamarixetin Attenuated the Virulence of Staphylococcus aureus by Directly Targeting Caseinolytic Protease P” (J Nat Prod, 2022).

How the values were obtained:
Staphylococcus aureus [1] = assay: Inhibition of Hla protein expression in methicillin-resistant Staphylococcus aureus USA300 at 4 to 64 ug/ml incubated for overnight by western blot analysis; format: functional; conditions: dose 4-64 µg/ml, DDE = dose-dependent effect
Staphylococcus aureus [2] = assay: Inhibition of Hla protein expression in methicillin-resistant Staphylococcus aureus Newman at 4 to 64 ug/ml incubated for overnight by western blot analysis; format: functional; conditions: dose 4-64 µg/ml, DDE = dose-dependent effect

COc1ccc(-c2oc3cc(O)cc(O)c3c(=O)c2O)cc1O [TAMARIXETIN]
inhibition (Staphylococcus aureus [1]): Dde | inhibition (Staphylococcus aureus [2]): Dde
